Test results published in patent EP4001279A1, “NOVEL SPIROPYRROLIDINE DERIVED ANTIVIRAL AGENTS” (Enanta Pharmaceuticals, Inc., priority 2020, dated 2022).

Tested on: 229E human corona virus (hCoV)
Assay: 229E live virus assay (CPE, ATPlite readout in MRC-5 cells)
Type: cell-based, hCoV-229E
Conditions: Human coronavirus 229E, MRC5, hCoV-229E live virus, MOI 0.05, ATPlite readout, run in duplicate

Row | SMILES | EC50 [nM]
1 | CN(C(=O)c1cc2c(F)cc(F)cc2[nH]1)[C@@H](CC1CCC1)C(=O)N1C[C@]2(C[C@H]1C#N)C(=O)Nc1ccccc12 [Example 91] | < 100
2 | COc1cccc2[nH]c(C(=O)N(C)[C@@H](CC3CCC3)C(=O)N3C[C@]4(C[C@H]3C#N)C(=O)Nc3ccccc34)cc12 [Example 92] | < 100
3 | CN(C(=O)c1cc2c(F)cccc2[nH]1)[C@@H](CC1CCC1)C(=O)N1C[C@]2(C[C@H]1C#N)C(=O)Nc1ccccc12 [Example 93] | < 100
4 | CCN(C(=O)c1cc2c(F)cccc2[nH]1)[C@@H](CC(C)C)C(=O)N1C[C@]2(C[C@H]1C#N)C(=O)Nc1ccccc12 [Example 95] | 100 to 1000
5 | C=CCN(C(=O)OCc1ccccc1)[C@@H](CC(C)C)C(=O)N1C[C@]2(C[C@H]1C#N)C(=O)Nc1ccccc12 [Example 96] | 100 to 1000
6 | CCCN(C(=O)OCc1ccccc1)[C@@H](CC(C)C)C(=O)N1C[C@]2(C[C@H]1C#N)C(=O)Nc1ccccc12 [Example 97] | > 1000
7 | CCCN(C(=O)c1cc2c(F)cccc2[nH]1)[C@@H](CC(C)C)C(=O)N1C[C@]2(C[C@H]1C#N)C(=O)Nc1ccccc12 [Example 98] | 100 to 1000
8 | CC(C)CC[C@@H](C(=O)N1C[C@]2(C[C@H]1C#N)C(=O)Nc1ccccc12)N(C)C(=O)OCc1ccccc1 [Example 100] | 100 to 1000
9 | CN(C(=O)OCc1ccccc1)[C@@H](CC1CC1)C(=O)N1C[C@]2(C[C@H]1C#N)C(=O)Nc1ccccc12 [Example 102] | > 1000
10 | CC(C)CC[C@@H](C(=O)N1C[C@]2(C[C@H]1C#N)C(=O)Nc1ccccc12)N(C)C(=O)c1cc2c(F)cc(F)cc2[nH]1 [Example 104] | < 100
11 | COc1cccc2[nH]c(C(=O)N(C)[C@@H](CCC(C)C)C(=O)N3C[C@]4(C[C@H]3C#N)C(=O)Nc3ccccc34)cc12 [Example 105] | < 100
12 | COc1cccc2[nH]c(C(=O)N(C)[C@@H](CC3CCCCC3)C(=O)N3C[C@]4(C[C@H]3C#N)C(=O)Nc3ccccc34)cc12 [Example 113] | < 100
13 | COc1cccc2[nH]c(C(=O)N(C)[C@@H](CC3CC3)C(=O)N3C[C@]4(C[C@H]3C#N)C(=O)Nc3ccccc34)cc12 [Example 114] | < 100
14 | CN(C(=O)c1cc2c(F)cc(F)cc2[nH]1)[C@@H](CC1CC1)C(=O)N1C[C@]2(C[C@H]1C#N)C(=O)Nc1ccccc12 [Example 115] | < 100
15 | CN(C(=O)c1cc2c(F)cccc2[nH]1)[C@@H](CC1CC1)C(=O)N1C[C@]2(C[C@H]1C#N)C(=O)Nc1ccccc12 [Example 116] | < 100
16 | COc1cccc2[nH]c(C(=O)N[C@@H](CC(C)C)C(=O)N3C[C@]4(C[C@H]3C=O)C(=O)N(C)c3ccccc34)cc12 [Example 119] | 100 to 1000
17 | COc1cccc2[nH]c(C(=O)N[C@@H](CC(C)C)C(=O)N3C[C@]4(C[C@H]3C#N)C(=O)N(C)c3ccccc34)cc12 [Example 120] | > 1000
18 | COc1cccc2[nH]c(C(=O)N(C)[C@@H](CC(C)C)C(=O)N3C[C@]4(C[C@H]3C#N)C(=O)N(C)c3ccccc34)cc12 [Example 121] | 100 to 1000
19 | CC(C)C[C@H](NC(=O)NCc1ccccc1)C(=O)N1C[C@]2(C[C@H]1C#N)C(=O)Nc1ccccc12 [Example 122] | 100 to 1000
20 | CC(C)(F)C[C@H](NC(=O)c1cc2c(F)cc(F)cc2[nH]1)C(=O)N1C[C@]2(C[C@H]1C#N)C(=O)Nc1ccc(Cl)cc12 [Example 123] | < 100
21 | CCCOC[C@H](NC(=O)c1cc2c(OC)cccc2[nH]1)C(=O)N1C[C@]2(C[C@H]1C#N)C(=O)Nc1ccccc12 [Example 126] | < 100
22 | C#CCOC[C@H](NC(=O)c1cc2c(OC)cccc2[nH]1)C(=O)N1C[C@]2(C[C@H]1C#N)C(=O)Nc1ccccc12 [Example 127] | < 100

Row | SMILES | EC50 [nM]
23 | CC(C)(C)OC(=O)NC[C@H](NC(=O)c1cc2c(F)cc(F)cc2[nH]1)C(=O)N1C[C@]2(C[C@H]1C#N)C(=O)Nc1ccccc12 [Example 128] | > 1000
24 | N#C[C@@H]1C[C@@]2(CN1C(=O)[C@H](COCc1cnn[nH]1)NC(=O)c1cc3c(F)cc(F)cc3[nH]1)C(=O)Nc1ccccc12 [Example 129] | > 1000
25 | CC(C)(C)C[C@H](NC(=O)c1ccc2ncc(C(F)(F)F)cc2c1)C(=O)N1C[C@]2(C[C@H]1C#N)C(=O)Nc1ccccc12 [Example 134] | < 100
26 | Cc1cnc2ccc(C(=O)N[C@@H](CC(C)(C)C)C(=O)N3C[C@]4(C[C@H]3C#N)C(=O)Nc3ccccc34)cc2c1 [Example 135] | < 100
27 | CC(C)(C)C[C@H](NC(=O)c1ccc2ncc(C3CC3)cc2c1)C(=O)N1C[C@]2(C[C@H]1C#N)C(=O)Nc1ccccc12 [Example 136] | < 100
28 | CC(C)(C)C[C@H](NC(=O)c1cc(OC(F)(F)F)c2ncccc2c1)C(=O)N1C[C@]2(C[C@H]1C#N)C(=O)Nc1ccccc12 [Example 137] | < 100
29 | CC(C)(C)C[C@H](NC(=O)c1cc(Cl)c2ncccc2c1)C(=O)N1C[C@]2(C[C@H]1C#N)C(=O)Nc1ccccc12 [Example 138] | < 100
30 | CC(C)(C)C[C@H](NC(=O)c1cc(OC(F)F)c2ncccc2c1)C(=O)N1C[C@]2(C[C@H]1C#N)C(=O)Nc1ccccc12 [Example 139] | < 100
31 | CC(C)(C)C[C@H](NC(=O)c1cn(-c2ccc(Cl)cc2)nn1)C(=O)N1C[C@]2(C[C@H]1C#N)C(=O)Nc1ccccc12 [Example 140] | < 100
32 | CC(C)(C)C[C@H](NC(=O)c1cn(C2CC2)nn1)C(=O)N1C[C@]2(C[C@H]1C#N)C(=O)Nc1ccccc12 [Example 141] | < 100
33 | CC(C)(C)C[C@H](NC(=O)c1cn(-c2cccc(Cl)c2)nn1)C(=O)N1C[C@]2(C[C@H]1C#N)C(=O)Nc1ccccc12 [Example 142] | < 100
34 | CC(C)(C)C[C@H](NC(=O)c1cn(CC(F)(F)F)nn1)C(=O)N1C[C@]2(C[C@H]1C#N)C(=O)Nc1ccccc12 [Example 143] | < 100
35 | CC(C)(C)C[C@H](NC(=O)c1cnn(CC(F)(F)F)c1)C(=O)N1C[C@]2(C[C@H]1C#N)C(=O)Nc1ccccc12 [Example 144] | < 100
36 | CC(C)(C)C[C@H](NC(=O)c1cnn(-c2ccc(C(F)(F)F)cc2)c1)C(=O)N1C[C@]2(C[C@H]1C#N)C(=O)Nc1ccccc12 [Example 145] | < 100
37 | Cc1cc2cc(C(=O)N[C@@H](CC(C)(C)C)C(=O)N3C[C@]4(C[C@H]3C#N)C(=O)Nc3ccccc34)cc(Cl)c2nc1C [Example 147] | < 100
38 | CC(C)(C)C[C@H](NC(=O)c1cn(C2CCC2)nn1)C(=O)N1C[C@]2(C[C@H]1C#N)C(=O)Nc1ccccc12 [Example 148] | < 100
39 | CC(C)C[C@@H](C(=O)N1C[C@]2(C[C@H]1C=O)C(=O)Nc1ccccc12)N(C)C(=O)c1cc2c(F)cc(F)cc2[nH]1 [Example 149] | < 100
40 | CC(C)C[C@@H](C(=O)N1C[C@]2(C[C@H]1C=O)C(=O)Nc1ccccc12)N(C)C(=O)c1cc2c(F)cc(F)c(F)c2[nH]1 [Example 150] | < 100
41 | CC(C)C[C@@H](C(=O)N1C[C@]2(C[C@H]1C(O)S(=O)(=O)O)C(=O)Nc1ccccc12)N(C)C(=O)c1cc2c(F)cc(F)cc2[nH]1 (stereo partly shown) [Example 153] | < 100
42 | CC(C)C[C@@H](C(=O)N1C[C@]2(C[C@H]1C(O)S(=O)(=O)O)C(=O)Nc1ccccc12)N(C)C(=O)c1cc2c(F)cc(F)c(F)c2[nH]1 (stereo partly shown) [Example 154] | < 100
43 | CC(C)C[C@@H](C(=O)N1C[C@]2(C[C@H]1C(=O)C(=O)NC1CCCCC1)C(=O)Nc1ccccc12)N(C)C(=O)c1cc2c(F)cc(F)cc2[nH]1 [Example 155] | > 1000
